The values below come from patent US7932283B2, “Fungicide N-cyclopropyl-sulfonylamide derivatives” (Bayer Cropscience AG, priority 2006, dated 2011).

Data set [1] concerns Mycosphaerella graminicola. In words: In vivo test on Mycosphaerella graminicola (wheat leaf spot). The following applies: Zymoseptoria tritici, wheat plants (Scipion variety), grading 21 to 28 days after contamination, good (at least 70%) or total protection, read-out: protection (% of efficacy). On the procedure: In vivo Test on Mycosphaerella graminicola (Wheat Leaf Spot)
The active ingredients tested are prepared by homogenisation in a mixture of acetone/tween/DMSO, and then diluted with water to obtain the desired active material concentration.
Wheat plants (Scipion variety), sown on a 50/50 peat soil-pozzolana substrate in starter cups and grown at 12° C., are treated at the 1-leaf stage (10 cm tall) by spraying with the active ingredient prepared as described above.
Plants, used as controls, are treated with the mixture of acetone/tween/DMSO/water not containing the active material.
After 24 hours, the plants are contaminated by spraying them with an aqueous suspension of Mycosphaerella graminicola spores (500 000 spores per ml). The spores are collected from a 7-day-old culture. The contaminated wheat plants are incubated for 72 hours at 18° C. and at 100% relative humidity, and then for 21 to 28 days at 90% relative humidity.
Grading (% of efficacy) is carried out 21 to 28 days after the contamination, in comparison with the control plants.

In the next data set the test system is Puccinia recondita. In words: In vivo test on Puccinia recondita f. sp. tritici (wheat brown rust). The following applies: 240 h, wheat plants (Scipion variety), grading 10 days after contamination, good (at least 70%) or total protection. On the procedure: In vivo Test on Puccinia reconditef. Sp. tritici (Wheat Brown Rust)
The active ingredients tested are prepared by homogenisation in a mixture of acetone/tween/DMSO, then diluted with water to obtain the desired active material concentration. Wheat plants (Scipion variety) in starter cups, sown on 50/50 peat soil-pozzolana substrate and grown at 12° C., are treated at the 1-leaf stage (10 cm tall) by spraying with the active ingredient prepared as described above. Plants, used as controls, are treated with the mixture of acetone/tween/DMSO/water not containing the active material.
After 24 hours, the plants are contaminated by spraying the leaves with an aqueous suspension of Puccinia recondita spores (100,000 spores per ml). The spores are collected from a 10-day-old contaminated wheat and are suspended in water containing 2.5 ml/of tween 80 10%. The contaminated wheat plants are incubated for 24 hours at 20° C. and at 100% relative humidity, and then for 10 days at 20° C. and at 70% relative humidity. Grading is carried out 10 days after the contamination, in comparison with the control plants.

Data set [2] can be described thus: logP by HPLC on reversed-phase column (C 18), EEC Directive 79/B31 Annex V.A8, methods A and B. The class given is physicochemical. The following applies: reversed-phase HPLC column (C 18), linear gradient 10% to 90% acetonitrile. On the procedure:
Calibration was carried out using unbranched alkan-2-ones (having 3 to 16 carbon atoms) with known logP values (determination of the logP values by the retention times using linear interpolation between two successive alkanones).

In another data set the test system is Podosphaera leucotricha. Put plainly: In vivo test on Podosphaera leucotricha (apple mildew), preventive spray. The following applies: 240 h, apple young plants, evaluated 10 days after inoculation, good (at least 70%) to total protection. Here is the method:
In Vivo Test on Podosphaera leucotncha (Apple Mildew) [table] To produce a suitable preparation of active compound, 1 part by weight of active compound is mixed with the stated amounts of solvent and emulsifier, and the concentrate is diluted with water to the desired concentration. Young plants are sprayed with the preparation of active compound at the stated rate of application. After the spray coating has dried on, the plants are inoculated with an aqueous spore suspension of the causal agent of apple mildew (Podosphaera leucobicha). The plants are then placed in a greenhouse at approximately 23° C. and a relative atmospheric humidity of approximately 70%. The test is evaluated 10 days after the inoculation. Under these conditions, good (at least 70%) to total protection is observed at a dose of 100 ppm with the following compounds: 104, 160, 176, 177, 180, 186, 187, 188, 192, 194, 196, 198, 203, 204, 205, 207, 209, 210, 211, 212, 213, 218 and 446.

Setting [3] is: LogP method B: HPLC reversed-phase C 18, 40° C., 0.1% aqueous formic acid / acetonitrile.
The mark [4] stands for this setting: HPLC reversed-phase C 18, method B: 40° C., 0.1% aqueous formic acid and acetonitrile.
Setting [5] is: HPLC reversed-phase C 18, method A: 43° C., 0.1% aqueous phosphoric acid, acetonitrile.

Take `COc1nn(C)cc1C(=O)N(C1CC1)S(=O)(=O)c1ccc(Oc2cccc(C(F)(F)F)c2F)cc1Cl` [Compound 519]: the pest or weed control at 500 ppm in data set [1] was not below 70%.

As for `Cc1nc(C(=O)N(C2CC2)S(=O)(=O)c2ccc(Oc3ccccc3)cc2)c(C(F)(F)F)o1` [Compound 49], the pest or weed control at 500 ppm (in the data set on Puccinia recondita; in data set [1]) was not below 70% throughout.

As for `CCOc1nn(C)cc1C(=O)N(C1CC1)S(=O)(=O)c1ccc(Oc2cccc(N(C)C)c2)c(O)c1` [Compound 539], in data set [2] (setting [3]), the chromatographic logP is 4.1. Further, the pest or weed control at 500 ppm (with Puccinia recondita; in data set [1]) was not below 70% throughout.

`Cc1nc(C(=O)N(C2CC2)S(=O)(=O)c2ccc(Oc3ccccc3)cc2)c(C)o1` [Compound 45]: the pest or weed control at 500 ppm in data set [1] is not below 70%.

Turning to `CCOc1nn(C)cc1C(=O)N(C1CC1)S(=O)(=O)c1ccc(Oc2ccc(Br)cc2)c(O)c1` [Compound 552], the chromatographic logP in data set [2] (setting [3]) turned out to be 4.5. Further, the pest or weed control at 500 ppm (in the data set with Puccinia recondita; in data set [1]) was not below 70% each time.

`CCOc1nn(C)cc1C(=O)N(C1CC1)S(=O)(=O)c1ccc(Oc2cccc(C(F)(F)F)c2F)c(O)c1` [Compound 547]: the chromatographic logP in data set [2] (setting [3]) stood at 4.3. In addition, the pest or weed control at 500 ppm (in the data set with Puccinia recondita; in data set [1]) was not below 70% throughout.

Turning to `CCc1nn(C)c(F)c1C(=O)N(C1CC1)S(=O)(=O)c1ccccc1C(F)(F)F` [Compound 377], the chromatographic logP in data set [2] (setting [4]) stood at 2.9. Also, the pest or weed control at 500 ppm in data set [1] is not below 70%.

With `CCc1nn(C)c(F)c1C(=O)N(C1CC1)S(=O)(=O)c1ccc(Oc2cccc(C)c2)cc1` [Compound 578], the pest or weed control at 500 ppm in data set [1] was not below 70%.

On to `Cc1nn(C)c(F)c1C(=O)N(C1CC1)S(=O)(=O)c1c(O)cccc1O` [Compound 218], for which the pest or weed control at 100 ppm in the data set with Podosphaera leucotricha was not below 70%. The compound further showed a chromatographic logP in data set [2] (setting [5]) of 2.52.

Regarding `Cc1cccc(Oc2ccc(S(=O)(=O)N(C(=O)c3c(C)nn(C)c3F)C3CC3)cc2)c1` [Compound 583], in data set [1], the pest or weed control at 500 ppm was not below 70%.

As to `CCOc1nn(C)cc1C(=O)N(C1CC1)S(=O)(=O)c1ccc(Oc2cccc(C(F)(F)F)c2)cc1` [Compound 264], the pest or weed control at 500 ppm (with Puccinia recondita; in data set [1]) was not below 70% each time.

The compound `Cn1nc(C(F)(F)F)c(C(=O)N(C2CC2)S(=O)(=O)c2cccc(Cl)c2F)c1F` [Compound 358] had a chromatographic logP in data set [2] (setting [4]) of 3.2. Also, in data set [1], the pest or weed control at 500 ppm was not below 70%.

For the compound `COc1nn(C)cc1C(=O)N(C1CC1)S(=O)(=O)c1ccc(Oc2cccc(N(C)C)c2)c(Cl)c1` [Compound 502], the pest or weed control at 500 ppm (with Puccinia recondita; in data set [1]) was not below 70% in each case.

Take `Cn1cc(C(=O)N(C2CC2)S(=O)(=O)c2ccc(Oc3ccccc3)cc2)c(C(F)F)n1` [Compound 249]: the pest or weed control at 500 ppm in data set [1] was not below 70%.

In data set [2] (setting [3]), `CC/C=N/N(C)/C(F)=C/C(=O)N(C1CC1)S(=O)(=O)c1csc(O)c1O` [Compound 438] came in with a chromatographic logP of 4. Moreover, the pest or weed control at 500 ppm in data set [1] was not below 70%.

Turning to `COc1nn(C)cc1C(=O)N(C1CC1)S(=O)(=O)c1ccc2c(c1)CCC(C)(C)O2` [Compound 457], the pest or weed control at 500 ppm (with Puccinia recondita; in data set [1]) was not below 70% in each case.

In the data set on Podosphaera leucotricha, `COc1nn(C)cc1C(=O)N(C1CC1)S(=O)(=O)c1ccccc1O` [Compound 211] gave a pest or weed control at 100 ppm not below 70%. Moreover, the chromatographic logP in data set [2] (setting [5]) was 1.94.

In turn, `CCOc1nn(C)cc1C(=O)N(C1CC1)S(=O)(=O)c1ccc(Oc2cccc(Br)c2)c(O)c1` [Compound 551] gave a chromatographic logP in data set [2] (setting [3]) of 4.5. The pest or weed control at 500 ppm in the data set on Puccinia recondita was not below 70%.

`CCc1nn(C)c(F)c1C(=O)N(C1CC1)S(=O)(=O)c1ccc(F)cc1Br` [Compound 380]: the chromatographic logP in data set [2] (setting [4]) is 2.9. The pest or weed control at 500 ppm in the data set with Puccinia recondita was not below 70%.

In data set [2] (setting [3]), `CCOc1nn(C)cc1C(=O)N(C1CC1)S(=O)(=O)C1C=CC(OC2=CC=C(C(F)(F)F)CC2)=CC1O` (centres unmarked) [Compound 538] yielded a chromatographic logP of 4.1. In data set [1], the pest or weed control at 500 ppm is not below 70%.

With `CCOc1nn(C)cc1C(=O)N(C1CC1C)S(=O)(=O)c1ccc(Oc2ccccc2)cc1` (centres unmarked) [Compound 675], the pest or weed control at 500 ppm in data set [1] was not below 70%.

As to `CCOc1nn(C)cc1C(=O)N(C1CC1)S(=O)(=O)c1ccc(Oc2ccccc2)c(O)c1` [Compound 533], in data set [2] (setting [3]), the chromatographic logP turned out to be 3.9. The pest or weed control at 500 ppm in the data set on Puccinia recondita is not below 70%.

`Cc1nn(C)c(F)c1C(=O)N(C1CC1)S(=O)(=O)c1ccc(C(F)(F)F)cc1` [Compound 188] showed a pest or weed control at 100 ppm in the data set with Podosphaera leucotricha not below 70%. The compound also yielded a chromatographic logP in data set [2] (setting [5]) of 3.1.

Turning to `Cc1nn(C)c(F)c1C(=O)N(C1CC1)S(=O)(=O)c1cccnc1O` [Compound 446], the pest or weed control at 100 ppm in the data set with Podosphaera leucotricha is not below 70%. Besides, the chromatographic logP in data set [2] (LogP method A: HPLC reversed-phase C 18, 43° C., 0.1% aqueous phosphoric acid / acetonitrile) is 1.96.

Regarding `CCOc1nn(C)cc1C(=O)N(C1CC1)S(=O)(=O)c1ccc(Oc2ccc(C(F)(F)F)cc2)c(Br)c1` [Compound 550], in data set [2] (setting [3]), the chromatographic logP was 4.4. In addition, the pest or weed control at 500 ppm (with Puccinia recondita; in data set [1]) was not below 70% in each case.

As for `CCOc1nn(C)cc1C(=O)N(C1CC1)S(=O)(=O)c1ccc(Oc2ccc(O)c(C(F)(F)F)c2)c(Cl)c1` [Compound 556], the chromatographic logP in data set [2] (setting [3]) was found to be 4.8. The pest or weed control at 500 ppm (in the data set with Puccinia recondita; in data set [1]) was not below 70% in each case.

Turning to `COc1nn(C)cc1C(=O)N(C1CC1)S(=O)(=O)c1ccc(Oc2cccc(C(F)(F)F)c2)cc1Cl` [Compound 508], the pest or weed control at 500 ppm in data set [1] was not below 70%.

In the case of `CCOc1nn(C)cc1C(=O)N(C1CC1)S(=O)(=O)c1ccc(Oc2ccccc2)cc1O` [Compound 530], the chromatographic logP in data set [2] (setting [3]) was 3.6. Also, the pest or weed control at 500 ppm in data set [1] is not below 70%.

In data set [2] (setting [3]), `CCOc1nn(C)cc1C(=O)N(C1CC1)S(=O)(=O)c1ccc(Cc2cc(O)cc(O)c2)c(O)c1` [Compound 559] registered a chromatographic logP of 5. In addition, the pest or weed control at 500 ppm (with Puccinia recondita; in data set [1]) was not below 70% in each case.

In data set [2] (setting [3]), `CCOc1nn(C)cc1C(=O)N(C1CC1)S(=O)(=O)c1ccc(Oc2ccc(O)cc2)cc1O` [Compound 535] displayed a chromatographic logP of 4. Moreover, the pest or weed control at 500 ppm in data set [1] is not below 70%.

In the case of `CCOc1nn(C)cc1C(=O)N(C1CC1)S(=O)(=O)c1ccc(Oc2ccc(Cl)c(Cl)c2)c(Cl)c1` [Compound 557], in data set [2] (setting [3]), the chromatographic logP is 4.8. The compound also displayed a pest or weed control at 500 ppm with Puccinia recondita not below 70%.

As to `CCOc1nn(C)cc1C(=O)N(C1CC1)S(=O)(=O)c1ccc2c(c1)CCC(C)(C)O2` [Compound 524], the pest or weed control at 500 ppm (in the data set on Puccinia recondita; in data set [1]) was not below 70% throughout.

The compound `CCOc1nn(C)cc1C(=O)N(C1CC1)S(=O)(=O)c1ccc(Oc2ccc(O)cc2)c(O)c1` [Compound 545] yielded a chromatographic logP in data set [2] (setting [3]) of 4.3. For the same compound, in the data set on Puccinia recondita, the pest or weed control at 500 ppm was not below 70%.

Compound `CCOc1nn(C)cc1C(=O)N(C1CC1)S(=O)(=O)c1ccc(Oc2ccc(OC)c(OC)c2)c(O)c1` [Compound 528] came in with a chromatographic logP in data set [2] (setting [3]) of 3.5. In addition, the pest or weed control at 500 ppm (in the data set on Puccinia recondita; in data set [1]) was not below 70% throughout.

What is called chromatographic logP is lipophilicity estimated from chromatographic retention. Read a high chromatographic logP as a more lipophilic compound.
